From PMC2914574 (Journal of neurochemistry, 2010)
Read-outs that look alike come from different tables or passages of the source. Marks after values point to notes of the source that are not given here.

Columns and labels:
wild-type hDAT = wild-type hDAT (Homo sapiens, UniProt Q01959); assay: displacement of intact-cell [3H]CFT binding, wild-type hDAT; settings: for fold increase in binding affinity over monovalent DA: relative to dopamine; for Ki: inhibition of [3H]CFT binding, intact HEK-hDAT cells, 21°C, 15 min
Chain of wild-type hDAT (Q01959 whole entry): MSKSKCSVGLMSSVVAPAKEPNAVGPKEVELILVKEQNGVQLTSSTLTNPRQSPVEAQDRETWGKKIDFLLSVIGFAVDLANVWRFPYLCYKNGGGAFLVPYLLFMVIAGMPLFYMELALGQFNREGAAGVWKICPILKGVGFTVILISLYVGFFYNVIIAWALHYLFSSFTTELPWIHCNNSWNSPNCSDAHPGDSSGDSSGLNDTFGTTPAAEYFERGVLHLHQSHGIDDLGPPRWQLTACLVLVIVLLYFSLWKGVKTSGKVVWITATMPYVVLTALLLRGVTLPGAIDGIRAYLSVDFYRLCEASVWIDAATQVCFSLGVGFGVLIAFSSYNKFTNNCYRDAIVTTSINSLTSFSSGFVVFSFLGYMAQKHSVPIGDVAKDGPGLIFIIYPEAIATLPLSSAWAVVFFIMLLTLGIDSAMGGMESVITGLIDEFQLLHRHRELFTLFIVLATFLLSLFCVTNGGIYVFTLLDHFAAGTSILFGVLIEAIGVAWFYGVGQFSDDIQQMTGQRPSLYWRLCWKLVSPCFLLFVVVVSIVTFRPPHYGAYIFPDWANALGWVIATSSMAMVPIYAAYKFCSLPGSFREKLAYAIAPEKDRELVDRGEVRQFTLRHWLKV

WT hDAT [1] = target: T1, WT hDAT (Homo sapiens, UniProt Q01959); assay: inhibition of [3H]DA uptake in intact HEK-hDAT cells; assay type: cell-based; settings: for Uptake Kapp, WT: inhibition of [3H]DA uptake, intact HEK-hDAT cells, 5 min; for Kapp / Ki ratio: uptake Kapp over binding Ki at WT hDAT
T1 sequence (Q01959 whole entry): as above

hDAT W84L mutant = target: T2, hDAT W84L mutant (Homo sapiens, UniProt Q01959, W84L); assay: displacement of intact-cell [3H]CFT binding, W84L mutant hDAT
T2 sequence (Q01959 1-620 W84L): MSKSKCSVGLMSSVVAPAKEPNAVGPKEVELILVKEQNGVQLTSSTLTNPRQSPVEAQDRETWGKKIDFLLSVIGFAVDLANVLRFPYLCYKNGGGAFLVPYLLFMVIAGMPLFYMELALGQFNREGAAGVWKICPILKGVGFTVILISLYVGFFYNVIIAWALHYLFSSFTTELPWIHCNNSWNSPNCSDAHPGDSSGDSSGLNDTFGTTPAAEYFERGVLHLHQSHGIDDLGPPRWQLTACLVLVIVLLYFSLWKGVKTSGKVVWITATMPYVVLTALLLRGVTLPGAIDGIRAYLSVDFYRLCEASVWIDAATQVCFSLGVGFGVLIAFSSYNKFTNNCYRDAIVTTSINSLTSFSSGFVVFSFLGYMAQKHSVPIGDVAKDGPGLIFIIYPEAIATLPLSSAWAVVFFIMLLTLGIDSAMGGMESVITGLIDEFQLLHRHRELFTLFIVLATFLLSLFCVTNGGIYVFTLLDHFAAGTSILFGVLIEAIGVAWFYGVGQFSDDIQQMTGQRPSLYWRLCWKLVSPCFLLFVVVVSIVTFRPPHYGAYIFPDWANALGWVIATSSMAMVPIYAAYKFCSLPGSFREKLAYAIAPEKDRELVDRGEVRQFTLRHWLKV

hDAT D313N mutant = hDAT D313N mutant (Homo sapiens, UniProt Q01959, D313N); assay: displacement of intact-cell [3H]CFT binding, D313N mutant hDAT
Chain of hDAT D313N mutant (Q01959 whole entry D313N): as the sequence (Q01959 whole entry) above, with D313N counted along it

WT hDAT [2] = target: T1, WT hDAT; settings: inhibition of [3H]DA uptake; ref Chen et al. (2004); cited from earlier work

Compound	fold increase in binding affinity over monovalent DA (wild-type hDAT; [3H]CFT binding, WT hDAT)	Ki (wild-type hDAT; read-out: hDAT Binding Ki, WT)	Uptake Kapp, WT (WT hDAT [1])	also measured
CC(Cc1ccccc1)NCCCCCCNCCc1ccc(O)c(O)c1 [Compound D-371]	42 fold	101 ± 13.4 nM	244.5 ± 21.5 nM	fold increase in binding affinity compared to (d)-amphetamine (wild-type hDAT; [3H]CFT binding, WT hDAT): 6 fold
Oc1ccc(CCNCCCCCCNCCc2ccc(O)c(O)c2)cc1O [Compound D-361]	61 fold	69.7 ± 9.54 nM	134.9 ± 17.5 nM	–
CC(CCc1ccc(O)cc1)NCCc1ccc(O)c(O)c1 (stereo not drawn) [(dl)-dobutamine, dobutamine, reference compound]	21 fold	–	329.4 ± 16.5 nM	Ki (wild-type hDAT; hDAT Binding Ki, WT): 196 ± 14.3 nM; Ki (hDAT W84L mutant): 237 ± 23.9 nM; Ki (hDAT D313N mutant): 257 ± 26.5 nM
CC(CCc1ccc(O)c(O)c1)NCCc1ccc(O)c(O)c1 [Compound D-278, hydroxydobutamine]	74 fold	58 ± 2.9 nM	187.5 ± 30.2 nM	fold increase in affinity compared to dobutamine (wild-type hDAT; [3H]CFT binding, WT hDAT): 4 fold; Ki (wild-type hDAT; read-out: hDAT Binding Ki, WT, listed as hydroxydobutamine): ~58 nM
CCCCCCNCCc1ccc(O)c(O)c1 [Compound D-363, N-hexyldopamine]	2.5 fold	1740 ± 191 nM	3075 ± 223 nM	fold weaker binding than the bivalent D-361 (wild-type hDAT; [3H]CFT binding, WT hDAT): 25 fold; fold loss of activity as inhibitor of [3H]DA uptake relative to dopamine (WT hDAT [1]; WT hDAT): > 7 fold; Kapp / Ki ratio (WT hDAT [1]): 1.8–2.5
Oc1ccc(CCNCCCCCNCCc2ccc(O)c(O)c2)cc1O [Compound D-347]	51 fold	83.3 ± 8.74 nM	171.5 ± 1.60 nM	–
hydroxydopentamine [Compound D-310]	–	91.4 ± 12.5 nM	155.3 ± 18.6 nM	–
CC(Cc1ccccc1)NCCCNCCc1ccc(O)c(O)c1 [Compound D-309]	13 fold	322 ± 15.3 nM	740.8 ± 30.1 nM	–
CN[C@@H](C)Cc1ccccc1 [(d)-methamphetamine, reference compound]	–	341 ± 42.7 nM	141.7 ± 18.8 nM	–
Oc1ccc(CCNCCCNCCc2ccc(O)c(O)c2)cc1O [Compound D-307]	5 fold	875 ± 71.4 nM	1691 ± 197 nM	–
COC(=O)[C@H]1[C@@H](c2ccc(F)cc2)C[C@@H]2CC[C@H]1N2C [β-CFT, 2β-carbomethoxy-3β-(4-fluorophenyl)-tropane]	–	–	–	Uptake Kapp, WT (WT hDAT [2]): 30.0 ± 4.0 ^b nM
CC(Cc1ccccc1)NCCCCCCNCCc1ccccc1 [Compound D-370]	–	97.8 ± 10 nM	204.7 ± 9.75 nM	–
CC(NC(C)(C)C)C(=O)c1cccc(Cl)c1 (stereo not shown) [bupropion, reference compound]	–	–	576.5 ± 29.1 nM	–
CC(Cc1ccccc1)NCCc1ccc(O)c(O)c1 [Compound D-279, dopamphetamine]	–	342 ± 5.38 nM	605.3 ± 46.7 nM	fold increase in binding affinity compared to (d)-amphetamine (wild-type hDAT; [3H]CFT binding, WT hDAT): 2 fold
C[C@H](N)Cc1ccccc1 [(d)-amphetamine, reference compound]	–	–	163.5 ± 4.57 nM	–
CN1[C@@H]2CC[C@H]1C[C@@H](OC(c1ccccc1)c1ccccc1)C2 [benztropine, reference compound]	–	–	375.5 ± 6.35 nM	–
COC(=O)[C@H]1[C@@H](OC(=O)c2ccccc2)C[C@@H]2CC[C@H]1N2C [cocaine]	–	–	–	Uptake Kapp, WT (WT hDAT [2]): 246.0 ± 25.0 ^b nM
CCCNC(C)Cc1ccccc1 (stereo not drawn) [(dl)-propylamphetamine, N-propylamphetamine, reference compound]	–	988 ± 67.6 nM	2497 ± 138 nM	Kapp / Ki ratio (WT hDAT [1]): 1.8–2.5
NCCc1ccccc1 [β-phenethylamine, reference compound]	–	3261 ± 21.5 nM	1103 ± 206 nM	–
Oc1ccc(CCNCCCCCCNCCc2ccccc2)cc1O [dopexamine, reference compound]	–	–	187.5 ± 19.2 nM	Ki (wild-type hDAT; hDAT Binding Ki, WT): 96.9 ± 13.7 nM; Ki (hDAT W84L mutant): 147 ± 5.09 nM; Ki (hDAT D313N mutant): 192 ± 20.6 nM
Oc1ccc(CCNCCCCCCCCNCCc2ccc(O)c(O)c2)cc1O [Compound D-362]	82 fold	51.9 nM	105.7 ± 2.98 nM	–
